Experimental data from patent US11591336B2 (Relay Therapeutics, Inc., priority 2017, dated 2023).
pIC50: −log10 of the molar value.

molecular target: SHP2 (Homo sapiens (Human), UniProt Q06124); experiment: SHP2 Allosteric Inhibition Assay (DiFMUP prompt fluorescence); type: biochemical; settings: 0.25 nM SHP2 activated with 0.5 μM peptide IRS1_pY1172(dPEG8)pY1222; substrate DiFMUP 100 μM; 25° C.

Row | pIC50 | Structure (SMILES)
1 | > 6.00 | C[C@@H]1OCC2(CCN(c3cnc4c(N5CCCc6nc(-c7cnccn7)ccc65)n[nH]c4n3)CC2)[C@@H]1N [Compound 350]
2 | > 6.00 | C[C@@H]1OCC2(CCN(c3cnc4c(N5CCCc6nc(-c7cnn(CCO)c7)ccc65)n[nH]c4n3)CC2)[C@@H]1N [Compound 351, 2-[4-(5-{6-[(3S,4S)-4-amino-3-methyl-2-oxa-8-azaspiro[4.5]decan-8-yl]-1H-pyrazolo[3,4-b]pyrazin-3-yl}-5,6,7,8-tetrahydro-1,5-naphthyridin-2-yl)-1H-pyrazol-1-yl]ethan-1-ol]
3 | > 6.00 | C[C@@H]1OCC2(CCN(c3cnc4c(N5CCCc6nc(CC#N)ccc65)n[nH]c4n3)CC2)[C@@H]1N [Compound 352]
4 | > 6.00 | Cc1nnc(-c2ccc3c(c2)[C@@H](C)CCN3c2n[nH]c3nc(N4CCC5(CC4)CO[C@@H](C)[C@H]5N)cnc23)o1 [Compound 353]
5 | > 6.00 | Cc1ccc2c(c1)CCCN2c1n[nH]c2nc(N3CCC4(CC3)CO[C@@H](C)[C@H]4N)cnc12 [Compound 354]
6 | > 6.00 | C[C@@H]1OCC2(CCN(c3cnc4c(N5CCCc6ccccc65)n[nH]c4n3)CC2)[C@@H]1N [Compound 355]
7 | > 6.00 | C[C@@H]1OCC2(CCN(c3cnc4c(N5CCCc6nc(-c7cncs7)ccc65)n[nH]c4n3)CC2)[C@@H]1N [Compound 356]
8 | > 6.00 | CC1c2ccccc2CCN1c1n[nH]c2nc(N3CCC4(CC3)CO[C@@H](C)[C@H]4N)cnc12 (stereo partly shown) [Compound 357]
9 | ≤ 5.00 | C[C@@H]1OCC2(CCN(c3cnc4c(N5CCc6cccc(-c7cnn(C)c7)c6C5)n[nH]c4n3)CC2)[C@@H]1N [Compound 358]
10 | 5.00 to 6.00 | C[C@@H]1OCC2(CCN(c3cnc4c(N5CCc6cccc(C#N)c6C5)n[nH]c4n3)CC2)[C@@H]1N [Compound 359]
11 | > 6.00 | CCC(=O)N1CCN(c2n[nH]c3nc(N4CCC5(CC4)CO[C@@H](C)[C@H]5N)cnc23)c2ccccc21 [Compound 360]
12 | > 6.00 | Cc1csc(-c2ccc3c(n2)CCCN3c2n[nH]c3nc(N4CCC5(CC4)CO[C@@H](C)[C@H]5N)cnc23)n1 [Compound 361]
13 | > 6.00 | CNC(=O)c1ccc2c(n1)[C@@H](C)CCN2c1n[nH]c2nc(N3CCC4(CC3)CO[C@@H](C)[C@H]4N)cnc12 [Compound 362, (8S)-5-{6-[(3S,4S)-4-amino-3-methyl-2-oxa-8-azaspiro[4.5]decan-8-yl]-1H-pyrazolo[3,4-b]pyrazin-3-yl}-N,8-dimethyl-5,6,7,8-tetrahydro-1,5-naphthyridine-2-carboxamide]

The next lines start with the compound.

Row | Structure (SMILES) | pIC50
14 | Cc1cccc2c1CCCN2c1n[nH]c2nc(N3CCC4(CC3)CO[C@@H](C)[C@H]4N)cnc12 [Compound 330] | > 6.00
15 | CNC(=O)N1CCN(c2n[nH]c3nc(N4CCC5(CC4)CO[C@@H](C)[C@H]5N)cnc23)c2cccnc21 [Compound 331, 1-{6-[(3S,4S)-4-amino-3-methyl-2-oxa-8-azaspiro[4.5]decan-8-yl]-1H-pyrazolo[3,4-b]pyrazin-3-yl}-N-methyl-1H,2H,3H,4H-pyrido[2,3-b]pyrazine-4-carboxamide] | > 6.00
16 | C[C@@H]1OCC2(CCN(c3cnc4c(N5CCNc6cc(-c7ccnnc7)ccc65)n[nH]c4n3)CC2)[C@@H]1N [Compound 332] | > 6.00
17 | COCCn1cc(-c2ccc3c(n2)CCCN3c2n[nH]c3nc(N4CCC5(CC4)CO[C@@H](C)[C@H]5N)cnc23)cn1 [Compound 333, (3S,4S)-8-(3-{6-[1-(2-methoxyethyl)-1H-pyrazol-4-yl]-1,2,3,4-tetrahydro-1,5-naphthyridin-1-yl}-1H-pyrazolo[3,4-b]pyrazin-6-yl)-3-methyl-2-oxa-8-azaspiro[4.5]decan-4-amine] | > 6.00
18 | CCn1cc(-c2ccc3c(n2)CCCN3c2n[nH]c3nc(N4CCC5(CC4)CO[C@@H](C)[C@H]5N)cnc23)cn1 [Compound 334, (3S,4S)-8-{3-[6-(1-ethyl-1H-pyrazol-4-yl)-1,2,3,4-tetrahydro-1,5-naphthyridin-1-yl]-1H-pyrazolo[3,4-b]pyrazin-6-yl}-3-methyl-2-oxa-8-azaspiro[4.5]decan-4-amine] | > 6.00
19 | C[C@@H]1OCC2(CCN(c3cnc4c(N5CCCc6c5ccnc6C(N)=O)n[nH]c4n3)CC2)[C@@H]1N [Compound 335, 1-{6-[(3S,4S)-4-amino-3-methyl-2-oxa-8-azaspiro[4.5]decan-8-yl]-1H-pyrazolo[3,4-b]pyrazin-3-yl}-1,2,3,4-tetrahydro-1,6-naphthyridine-5-carboxamide] | > 6.00
20 | C[C@@H]1OCC2(CCN(c3cnc4c(N5CCCc6nc(C7=CCOC7)ccc65)n[nH]c4n3)CC2)[C@@H]1N [Compound 336] | > 6.00
21 | C[C@@H]1OCC2(CCN(c3cnc4c(N5CCc6ccc(-c7cnn(C)c7)cc6C5)n[nH]c4n3)CC2)[C@@H]1N [Compound 337] | > 6.00
22 | C[C@@H]1OCC2(CCN(c3cnc4c(N5CCc6cc(-c7cnn(C)c7)ccc6C5)n[nH]c4n3)CC2)[C@@H]1N [Compound 338] | > 6.00
23 | N[C@@H]1CCC12CCN(c1cnc3c(N4CCCc5ncccc54)n[nH]c3n1)CC2 [Compound 339, (1R)-7-[3-(1,2,3,4-tetrahydro-1,5-naphthyridin-1-yl)-1H-pyrazolo[3,4-b]pyrazin-6-yl]-7-azaspiro[3.5]nonan-1-amine] | > 6.00
24 | N[C@H]1CCC12CCN(c1cnc3c(N4CCCc5ncccc54)n[nH]c3n1)CC2 [Compound 340, (1S)-7-[3-(1,2,3,4-tetrahydro-1,5-naphthyridin-1-yl)-1H-pyrazolo[3,4-b]pyrazin-6-yl]-7-azaspiro[3.5]nonan-1-amine] | > 6.00
25 | C[C@@H]1OCC2(CCN(c3cnc4c(N5CCS(=O)(=O)c6ccccc65)n[nH]c4n3)CC2)[C@@H]1N [Compound 341] | > 6.00
26 | CNC(=O)N1CCN(c2n[nH]c3nc(N4CCC5(CC4)CO[C@@H](C)[C@H]5N)cnc23)c2ccccc21 [Compound 342] | > 6.00
27 | C[C@@H]1OCC2(CCN(c3cnc4c(N5CCCc6c(NS(C)(=O)=O)cccc65)n[nH]c4n3)CC2)[C@@H]1N [Compound 343, N-(1-{6-[(3S,4S)-4-amino-3-methyl-2-oxa-8-azaspiro[4.5]decan-8-yl]-1H-pyrazolo[3,4-b]pyrazin-3-yl}-1,2,3,4-tetrahydroquinolin-5-yl)methanesulfonamide] | > 6.00
28 | C[C@@H]1OCC2(CCN(c3cnc4c(N5CCCc6c5cccc6N(S(C)(=O)=O)S(C)(=O)=O)n[nH]c4n3)CC2)[C@@H]1N [Compound 344, N-(1-{6-[(3S,4S)-4-amino-3-methyl-2-oxa-8-azaspiro[4.5]decan-8-yl]-1H-pyrazolo[3,4-b]pyrazin-3-yl}-1,2,3,4-tetrahydroquinolin-5-yl)-N-methanesulfonylmethanesulfonamide] | > 6.00
29 | Cc1ccc2c(c1S(C)(=O)=O)CCCN2c1n[nH]c2nc(N3CCC4(CC3)CO[C@@H](C)[C@H]4N)cnc12 [Compound 345] | > 6.00
30 | C[C@@H]1CCN(c2n[nH]c3nc(N4CCC5(CC4)CO[C@@H](C)[C@H]5N)cnc23)c2ccc(C(=O)N(C)C)nc21 [Compound 347, (8R)-5-{6-[(3S,4S)-4-amino-3-methyl-2-oxa-8-azaspiro[4.5]decan-8-yl]-1H-pyrazolo[3,4-b]pyrazin-3-yl}-N,N,8-trimethyl-5,6,7,8-tetrahydro-1,5-naphthyridine-2-carboxamide] | > 6.00
31 | C[C@@H]1OCC2(CCN(c3cnc4c(N5CCCc6nc(-c7cccnn7)ccc65)n[nH]c4n3)CC2)[C@@H]1N [Compound 348] | > 6.00
